Results taken from US10370379B2, “Compounds and compositions useful for treating disorders related to NTRK” (BLUEPRINT MEDICINES CORPORATION, priority 2015, dated 2019).
pIC50: −log10 of the molar value. Like-named read-outs stand apart in the source and are kept apart here.

Key:
[1] = test system: KM12 wild type colon carcinoma cell line harboring the TPM3-NTRK1 fusion protein; assay: NTRK wild type cellular assay (KM12, CellTiter-Glo); type: cell-based; conditions: for pIC50: KM12 wild type cells, 72 hr, CellTiter-Glo; for GI50: NTRK wt cellular, known NTRK inhibitors
Description: (§1) NTRK Wild Type and G595R Mutant Cellular Assays Protocol
(§2) KM12 wild type colon carcinoma cell line harboring the TPM3-NTRK1 fusion protein was obtained from the National Cancer Institute (NCI). This line has been previously shown to be dependent upon the NTRK activity derived from the NTRK fusion protein for growth and survival. […] Cells were first plated in 384-well plates at 1000 cells/well in complete media (10% FBS and 1% pen/strep) and incubated overnight at 37° C. Cells were then dosed with test articles at varying concentrations using the Bravo liquid handling system. […] Each compound was run in duplicate per plate. […] 72 hr after dosing, assay plates were developed using CellTiter-Glo (Promega) and resultant luminescence was read on the Envision plate reader. IC50 determinations were calculated using a 4-parameter curve fitting algorithm

[2] = target: wild type NTRK1 enzyme (Homo sapiens (Human), UniProt P04629); assay: NTRK1 Wild Type Assay at 1 mM ATP; type: biochemical
Description: NTRK1 Wild Type Assay at 1 mM ATP
The reaction was stopped by the addition of 70 μL of Stop buffer (100 mM HEPES pH 7.5, 0.015% Brij 35, 35 mM EDTA and 0.2% of Coating Reagent 3 (Caliper Lifesciences)). The plate was then read on a Caliper EZReader 2 (protocol settings: −1.7 psi, upstream voltage −500, downstream voltage −3000, post sample sip 35 s).

[3] = test system: KM12 Cliff (G595R) cell line; assay: NTRK G595R mutant cellular assay (KM12 Cliff, CellTiter-Glo); type: cell-based; conditions: for pIC50: Homo sapiens, KM12 Cliff (G595R) cells, 72 hr, CellTiter-Glo
Description: as §1, §2

[4] = wild type NTRK1, 1 mM ATP, read-out: NTRK1 IC50

Sequence of wild type NTRK1 enzyme (P04629 33-796): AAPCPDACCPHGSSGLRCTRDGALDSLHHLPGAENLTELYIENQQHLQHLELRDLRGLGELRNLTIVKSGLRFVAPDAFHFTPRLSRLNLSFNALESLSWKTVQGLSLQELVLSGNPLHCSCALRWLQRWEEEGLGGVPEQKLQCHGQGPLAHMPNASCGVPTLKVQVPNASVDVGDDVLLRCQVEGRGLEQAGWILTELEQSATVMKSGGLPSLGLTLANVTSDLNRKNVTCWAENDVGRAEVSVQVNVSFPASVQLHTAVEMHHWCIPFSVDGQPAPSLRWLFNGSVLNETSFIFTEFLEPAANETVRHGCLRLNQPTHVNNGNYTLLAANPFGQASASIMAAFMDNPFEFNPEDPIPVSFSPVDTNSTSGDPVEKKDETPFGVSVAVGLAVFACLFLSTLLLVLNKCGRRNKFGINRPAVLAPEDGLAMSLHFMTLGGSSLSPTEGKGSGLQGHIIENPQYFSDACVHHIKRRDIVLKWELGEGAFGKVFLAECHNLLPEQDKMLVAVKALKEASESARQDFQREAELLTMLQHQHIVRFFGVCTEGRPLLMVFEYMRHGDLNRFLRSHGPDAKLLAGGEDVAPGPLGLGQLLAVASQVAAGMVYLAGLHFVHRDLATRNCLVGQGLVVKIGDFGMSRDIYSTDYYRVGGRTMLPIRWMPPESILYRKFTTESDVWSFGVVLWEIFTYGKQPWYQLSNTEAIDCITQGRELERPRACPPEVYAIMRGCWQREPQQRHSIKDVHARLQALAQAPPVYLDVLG

Structure (SMILES)	pIC50 ([1]; Homo sapiens)	pIC50 [2, 4]	pIC50 [3]	GI50 ([1]; Homo sapiens, KM12) [nM]	GI50 [1] [nM]	pIC50 ([2]; NTRK wt, known NTRK inhibitors, read-out: NTRK wt Enzyme Assay IC50)	GI50 ([3]; NTRK G595R cellular, known NTRK inhibitors) [nM]
N#Cc1cnn2ccc(N3C[C@@H](F)C[C@@H]3c3cc(F)cc(C(=O)NCC4CC4)c3)nc12 [Compound 19]	7.00 to 8.00	> 8.00	7.00 to 8.00	–	–	–	–
N#Cc1cc(F)cc([C@H]2C[C@H](F)CN2c2ccn3ncc(C#N)c3n2)c1 [Compound 6, 5-((2R,4S)-2-(3-cyano-5-fluorophenyl)-4-fluoropyrrolidin-1-yl)pyrazolo[1,5-a]pyrimidine-3-carbonitrile]	> 8.00	> 8.00	> 8.00	–	–	–	–
N#Cc1cnn2ccc(N3CC(F)(F)C[C@@H]3c3cncc(F)c3)nc12 [Compound 3, (R)-5-(4,4-difluoro-2-(5-fluoropyridin-3-yl)pyrrolidin-1-yl)pyrazolo[1,5-a]pyrimidine-3-carbonitrile]	7.00 to 8.00	7.00 to 8.00	6.00 to 7.00	–	–	–	–
N#Cc1cnn2ccc(N3C[C@@H](F)C[C@@H]3c3cncc(F)c3)nc12 [Compound 1, 5-((2R,4S)-4-fluoro-2-(5-fluoropyridin-3-yl)pyrrolidin-1-yl)pyrazolo[1,5-a]pyrimidine-3-carbonitrile]	> 8.00	> 8.00	7.00 to 8.00	–	–	–	–
N#Cc1cnn2ccc(N3C[C@@H](F)C[C@@H]3c3cc(F)ccc3C(N)=O)nc12 [Compound 22, 2-((2R,4S)-1-(3-cyanopyrazolo[1,5-a]pyrimidin-5-yl)-4-fluoropyrrolidin-2-yl)-4-fluorobenzamide]	7.00 to 8.00	7.00 to 8.00	6.00 to 7.00	–	–	–	–
N#Cc1cnn2ccc(N3C[C@@H](F)C[C@@H]3c3cc(F)cc(Cl)c3)nc12 [Compound 9]	> 8.00	> 8.00	> 8.00	–	–	–	–
N#Cc1cnn2ccc(N3C[C@@H](F)C[C@@H]3c3cc(F)cc(C(=O)NCCO)c3)nc12 [Compound 18]	7.00 to 8.00	7.00 to 8.00	7.00 to 8.00	–	–	–	–
N#Cc1cnn2cc(F)c(N3C[C@@H](F)C[C@@H]3c3cncc(F)c3)nc12 [Compound 4, 6-fluoro-5-((2R,4S)-4-fluoro-2-(5-fluoropyridin-3-yl)pyrrolidin-1-yl)pyrazolo[1,5-a]pyrimidine-3-carbonitrile]	> 8.00	> 8.00	> 8.00	–	–	–	–
COc1c(F)cc(F)cc1[C@H]1C[C@H](F)CN1c1ccn2ncc(C#N)c2n1 [Compound 13]	> 8.00	> 8.00	> 8.00	–	–	–	–
Cn1cc(F)cc([C@H]2C[C@H](F)CN2c2ccn3ncc(C#N)c3n2)c1=O [Compound 8, 5-((2R,4S)-4-fluoro-2-(5-fluoro-1-methyl-2-oxo-1,2-dihydropyridin-3-yl)pyrrolidin-1-yl)pyrazolo[1,5-a]pyrimidine-3-carbonitrile]	7.00 to 8.00	7.00 to 8.00	6.00 to 7.00	–	–	–	–
C[C@@H](Oc1cc(-c2cnn(C3CCNCC3)c2)cnc1N)c1c(Cl)ccc(F)c1Cl [Crizotinib, reference compound]	–	–	–	87	–	–	–
N#Cc1cnn2ccc(N3C[C@@H](F)C[C@@H]3c3cc(F)ccc3OC(F)(F)F)nc12 [Compound 17]	> 8.00	> 8.00	> 8.00	–	–	–	–
CC(C)(O)c1cc(F)cc([C@H]2C[C@H](F)CN2c2ccn3ncc(C#N)c3n2)c1 [Compound 14, 5-((2R,4S)-4-fluoro-2-(3-fluoro-5-(2-hydroxypropan-2-yl)phenyl)pyrrolidin-1-yl)pyrazolo[1,5-a]pyrimidine-3-carbonitrile]	7.00 to 8.00	7.00 to 8.00	6.00 to 7.00	–	–	–	–
CC(C)NC(=O)[C@H]1CC[C@@H](n2c(NC(=O)c3ccc(F)cc3)nc3ccc(CN4CCC(C(C)(C)O)CC4)cc32)CC1 [TSR-011, reference compound]	–	–	–	–	32	8.64	12000
N#Cc1cnn2ccc(N3C[C@@H](F)C[C@@H]3c3cc(F)cc(C(N)=O)c3)nc12 [Compound 11]	> 8.00	> 8.00	7.00 to 8.00	–	–	–	–
N#Cc1cnn2ccc(N3C[C@@H](F)C[C@@H]3c3cc(F)ccc3F)nc12 [Compound 2]	> 8.00	> 8.00	> 8.00	–	–	–	–
CNC(=O)c1cc(F)cc([C@H]2C[C@H](F)CN2c2ccn3ncc(C#N)c3n2)c1 [Compound 20, 3-((2R,4S)-1-(3-cyanopyrazolo[1,5-a]pyrimidin-5-yl)-4-fluoropyrrolidin-2-yl)-5-fluoro-N-methylbenzamide]	7.00 to 8.00	7.00 to 8.00	7.00 to 8.00	–	–	–	–
COc1ncc(F)cc1[C@H]1C[C@H](F)CN1c1ccn2ncc(C#N)c2n1 [Compound 7, 5-((2R,4S)-4-fluoro-2-(5-fluoro-2-methoxypyridin-3-yl)pyrrolidin-1-yl)pyrazolo[1,5-a]pyrimidine-3-carbonitrile]	> 8.00	> 8.00	> 8.00	–	–	–	–
CN(C)C(=O)c1cc(F)cc([C@H]2C[C@H](F)CN2c2ccn3ncc(C#N)c3n2)c1 [Compound 21]	7.00 to 8.00	7.00 to 8.00	6.00 to 7.00	–	–	–	–
N#Cc1cnn2ccc(N3C[C@@H](F)C[C@@H]3c3cc(F)cc(S(N)(=O)=O)c3)nc12 [Compound 16]	7.00 to 8.00	> 8.00	7.00 to 8.00	–	–	–	–
N#Cc1cnn2ccc(N3C[C@@H](C#N)C[C@@H]3c3cc(F)ccc3F)nc12 [Compound 5, 5-((2R,4S)-4-cyano-2-(2,5-difluorophenyl)pyrrolidin-1-yl)pyrazolo[1,5-a]pyrimidine-3-carbonitrile]	7.00 to 8.00	7.00 to 8.00	6.00 to 7.00	–	–	–	–
N#Cc1cc(F)cc([C@H]2C[C@H](F)CN2c2nc3c(C#N)cnn3cc2F)c1 [Compound 12]	> 8.00	> 8.00	> 8.00	–	–	–	–
N#Cc1cnn2ccc(N3C[C@@H](F)C[C@@H]3c3cc(F)cnc3Cl)nc12 [Compound 10]	> 8.00	> 8.00	> 8.00	–	–	–	–
N#Cc1cnn2cc(F)c(N3C[C@@H](F)C[C@@H]3c3cc(F)cc(C(N)=O)c3)nc12 [Compound 15]	7.00 to 8.00	> 8.00	7.00 to 8.00	–	–	–	–
